The subject of one test is primary human monocytes. Nature of the test: primary human monocytes nucleofected with a GFP expression vector. It is filed as cell-based. Conditions: 3 days post-transfection, flow cytometry, versus DMSO (not detectably transfected), FIG. 7B. An excerpt:
Primary human monocytes were purified by negative selection and nucleofected with a GFP expression vector. Since these cells naturally express A3A, transfection with A3A expression plasmids was not necessary. The pool of transfected cells was split into wells containing media plus vehicle control or MN132. A variety of different cell lines (lymphoid, liver, breast, brain, epithelial, and colorectal origins) and distinct primary white blood cell types (T, B, monocyte, neutrophil, etc.) can be used in these experiments to test the central hypothesis that the endogenous A3s constitute a general barrier to foreign DNA and genetic engineering.
A general note: A flow cytometer gives signals particle by particle.

In the next test the target is T1, A3A (Homo sapiens, UniProt P31941).
T1 construct: expressed in transfected cells; host or cells: HEK-293T
T1 sequence (P31941 whole entry): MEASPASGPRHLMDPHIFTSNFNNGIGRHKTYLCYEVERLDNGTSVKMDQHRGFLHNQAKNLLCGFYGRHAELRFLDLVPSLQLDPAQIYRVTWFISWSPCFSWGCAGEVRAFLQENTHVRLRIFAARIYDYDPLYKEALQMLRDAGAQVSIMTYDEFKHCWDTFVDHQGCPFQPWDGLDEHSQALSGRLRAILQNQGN
Nature of the test: DNA deaminase assay in A3A-expressing HEK-293T cell extracts. It is filed as biochemical. To be noted: A3A-transfected HEK-293T total cell extracts, compared with recombinant protein, FIG. 5.

In test [1] the test system is A3 DNA deaminase (A3A or A3G). Nature of the test: fluorescence-based DNA deamination assay, high-throughput screening. The format is biochemical, human. To be noted: 10 μM library compound, inhibitors inhibit the reaction by 50% or more and reproduce in dose response. The text has this:
MN132, MN137, MN141, and MN152 are a few exemplary molecules identified from high-throughput screening. To screen for inhibitors of A3A or A3G DNA cytosine deaminase activity, a previously described fluorescence-based assay has been modified, optimized, and miniaturized (FIG. 2A) (30). C-to-U by A3A or A3G creates a substrate uracil that is excised by UDG, and the resulting abasic site is attacked by hydroxide to release 6-FAM fluorescence from the TAMRA quench. Recombinant A3A- or A3G-myc-His purified from a HEK-293-based cell line is incubated with uracil DNA glycosylase (UDG), 10 μM library compound (or a DMSO control), and a cytosine-containing, single-stranded DNA substrate attached to a 5′ 6-FAM fluorescent tag and a 3′ TAMRA quench molecule. During a 2 hr incubation period, the A3 protein deaminates 5′-C-to-U and UDG excises the uracil to leave an abasic site. DNA cleavage by NaOH produces a fluorescent signal by releasing the 6-FAM fluorophore from the TAMRA quench. This assay is highly sensitive and reproducible (A3G Z score=0.86 and A3A Z score=0.88 on the University of Minnesota ITDD HTS platform). […]
Protocols were developed for purification of A3-myc-His proteins from HEK-293 cells. […] High (80-90%) purity is achieved routinely, and all proteins show robust activity in our fluorescence-based C-to-U deaminase assay as shown in FIGS. 4C and 4D.

Test [2] has as its target E. Coli uracil-DNA glycosylase (Escherichia coli, UniProt P12295). Nature of the test: control assay with UDG (U-containing oligos, without A3s). The format is biochemical. Conditions: specificity control, FIG. 2C. The text has this:
All newly synthesized compounds can be tested in dose response experiments against recombinant A3A and A3G to identify the sub-library_compounds that have dual-inhibitory activity like the parental molecules.
These initial experiments can also identify the subset with improved IC50 values. Second, all confirmed inhibitors can be tested against the other five recombinant human A3 proteins (A3BCDEFH) to identify broader-spectrum inhibitors. Third, reactions can be performed with U-containing oligos and UDG (i.e., without A3s) to re-confirm that all new inhibitors have not become general enzyme inhibitors. These assays can be carried out in 96 or 384 well plate formats. HEK-293T cells were transfected with an A3A expression plasmid, and total cell extracts were used in DNA deaminase assays. Non-transfected or A3A-E72A catalytic mutant transfected cell extracts show no activity (28).

These results are taken from US20140275224A1, “CYTOSINE DEAMINASE MODULATORS FOR ENHANCEMENT OF DNA TRANSFECTION” (Regents of the University of Minnesota, priority 2010, published 2014).

SMILES strings stand for the structures.

E. Coli uracil-DNA glycosylase, sequence (P12295 whole entry): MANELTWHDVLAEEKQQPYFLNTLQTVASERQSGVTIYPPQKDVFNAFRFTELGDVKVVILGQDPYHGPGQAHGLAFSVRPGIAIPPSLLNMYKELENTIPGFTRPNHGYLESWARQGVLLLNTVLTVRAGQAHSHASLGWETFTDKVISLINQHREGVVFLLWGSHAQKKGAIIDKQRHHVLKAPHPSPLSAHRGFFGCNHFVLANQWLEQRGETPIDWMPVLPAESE

In the case of `Cc1ccc(-c2cc(C(=O)Nc3nnc(-c4ccncc4)s3)c3ccccc3n2)o1` [MN132, 2-(5-methylfuran-2-yl)-N-(5-(pyridin-4-yl)-1,3,4-thiadiazol-2-yl)quinoline-4-carboxamide], in the test with primary human monocytes, the “percentage of cells expressing GFP” value was “dose dependent increases”. Also, at A3A, the “IC50 values in cell extracts” value is listed as “higher”. In addition, in test [1], the “inhibition of A3 DNA deaminase activity in vitro” value is on record as “inhibit A3 DNA deaminase activity in vitro”.
Turning to `O=C(O)C1=CC(=C(c2ccc(O)c(C(=O)O)c2)c2ccc(O)c(C(=O)O)c2)C=CC1=O` [ATA], the “block of UDG” value in test [2] is reported as “lone exception”.
